# Several values for one entry are separate records, joined by “and”; a condition that tells them apart may be missing. Equal values may be shown once.
# Experiments:
# [1] = system: ampicillin susceptible strain (JM109); experiment: SPR angle shift, ampicillin sensitivity test (susceptible strain); assay type: cell-based, E. coli; settings: for susceptible surface plasmon resonance angle shift/resistant surface plasmon resonance angle shift: ratio susceptible/resistant strain
# Text: (§1) On setting up the surface plasmon resonance, a He—Ne laser (wavelength=632.8 nm) was used as the light source. The laser beam passed through the polarizer to block […], and only p-polarization component could excite surface plasmon. The transmitted p-polarization beam was split into two beams via beam splitter (BS), one beam was detected by photodiode as reference light, and the other beam injected into prism at specific range of angles to decide surface plasmon angle. The reflected light was detected via the photodiode in the opposite side of prism as signal light. Surface plasmon was excited on Au metal film deposited on flat glass surface which attached on prism via matching oil. The current signal detected by photodiode was expanded via amplifier and transformed into voltage signal via 16-bit A/D converter (Adventech PCI-1716) The Y-axial represented the ratio of reference light and signal light, X-axial represented the incident angle of interface between prism and sample. Incident angle was controlled by controller which motor motorized stage with two arms. When surface plasmon resonance angle was detected, the energy of injected light was absorbed and surface plasmon resonance was achieved. This experimental setup was build by National Cheng-Kung University, department of Engineering Science, Adaptic Photonic Lab.
# (§2) The bacteria used herein were JM109 strain, which was recA1 mutation that helped ensure insert stability. EndA1 mutation improved the quality of the plasmid miniprep DNA. HsdR17 mutation prevented the cleavage of cloned DNA by an endogenous endonuclease system.
# (§3) Penicillin was referred to β-lactam drugs because of the importance of the β-lactam ring. An intact ting structure was essential for antibacterial activity. The cleavage of the ring by penicillinase (β-lactamase) inactivated the drug. The antibiotic bacteria strain used herein was transformed by ampicillin resistant plasmid that translated β-lactamase to cleave the ring of ampicillin. The bacteria was picked out by loop and planted in 5 ml LB broth over night, then transferred into 100 ml LB and incubated for two hours.
# (§4) Diluted Poly-L-Lysine solution with deionized water prior to coating slides. The flat glass surface deposited with Au metal film was immersed in poly-L-lysine solution (concentration is […]) for at least 24 hours to interact with Au metal film, cells can be immobilized on biochips after incubation.
# (§5) The sterilized DI water was injected into the flow chamber for 30 min to stabilize the system when biochip coated with poly-L-lysine was assembled. After balancing, the incubated LA broth was injected into the flow chamber for 210 minutes to cover the AU metal film. Subsequently, antibiotic solution was injected, and the surface plasmon resonance curve was observed on the computer.
# (§6) Surface plasmon resonance system measured SPR angle continuously, and compared SPR curve of antibiotic susceptible and antibiotic resistant strain under the same condition. The SPR curve of antibiotic resistant strain was depicted in FIG. 2, and antibiotic susceptible strain SPR curve was depicted in FIG. 3. Experimental data represented that after 30 minutes of balance of the SPR system, the injection of bacteria LB broth increased the SPR angle. After 210 minutes, the extra bacteria were washed with deionized water and presented the decrease of SPR angle, then balanced for 10-20 minutes. Antibiotic solution was injected after the balance curve. […]
# [2] = system: ampicillin resistant strain (JM109 transformed by ampicillin resistant plasmid); experiment: SPR angle shift, ampicillin resistance test (resistant strain); assay type: cell-based, E. coli
# Text: as §1, §2, §3, §4, §5, §6
smiles,measurement,setting,value
CC1(C)S[C@@H]2[C@H](NC(=O)[C@H](N)c3ccccc3)C(=O)N2[C@H]1C(=O)O [ampicillin],Ampicillin susceptible surface plasmon resonance angle shift,[1]; Average of 4 repeats,−0.0659
same,susceptible surface plasmon resonance angle shift/resistant surface plasmon resonance angle shift,[1]; Average of 4 repeats,2.377
same,susceptible surface plasmon resonance angle shift/resistant surface plasmon resonance angle shift,[1]; single repeat experiments,1.9834 and 2.6208 and 3.2312 and 1.6729
same,drop of SPR angle,"[1]; standard kinetic plot (FIG. 3), after injection of antibiotics",−0.06876 degree
same,drop of SPR angle,[1]; thirty minutes after antibiotic treatment (FIG. 5),−0.01702 degree
same,Ampicillin resistant surface plasmon resonance angle shift,[2]; Average of 4 repeats,−0.02935
same,drop of SPR angle,"[2]; standard kinetic plot (FIG. 2), after injection of antibiotics",−0.02128 degree
same,drop of SPR angle of resistant strain compared to susceptible strain,"[2]; standard kinetic plot (FIGS. 2, 3)",approximately ⅓
same,drop of SPR angle of resistant strain compared to susceptible strain,[2]; thirty minutes after antibiotic treatment,approximately ⅕
same,drop of SPR angle,[2]; thirty minutes after antibiotic treatment (FIG. 4),−0.00332 degree
